This note sets out measurements from US10004701B2, “Methods and compositions for treating infection” (UNIVERSITY OF ROCHESTER, priority 2012, dated 2018).

Assay in all cases: AK assay 384-well format, Prestwick library screening
One test concerns E. faecium. The class given is cell-based, Enterococcus faecium. The note with it: 50 μM final drug concentration; for fold induction at 50 µM: Enterococcus faecium, 3 h.
For test [1], the system named is A. baumannii strain 98-37-09. In kind it is cell-based, Acinetobacter baumannii. The note with it: 50 μM final drug concentration; for fold induction at 50 µM: Acinetobacter baumannii, 983709, 3 h.
Another test has as its system P. aeruginosa. The class given is cell-based, Pseudomonas aeruginosa. The note with it: 50 μM final drug concentration; for fold induction at 50 µM: Pseudomonas aeruginosa, 3 h.
In test [2] the test system is S. aureus strain USA300-0114. In kind it is cell-based, Staphylococcus aureus. The note with it: 50 μM final drug concentration; for fold induction at 50 µM: Staphylococcus aureus, USA300, 3 h.
A further test relates to E. cloacae. The class given is cell-based, Enterobacter cloacae. The note with it: 50 μM final drug concentration; for fold induction at 50 µM: Enterobacter cloacae, 3 h.
The subject of another test is E. coli. The class given is cell-based, Escherichia coli. The note with it: for fold induction at 50 µM: Escherichia coli, 3 h.
A further test has as its system K. pneumoniae. The class given is cell-based, Klebsiella pneumoniae. The note with it: 50 μM final drug concentration; for fold induction at 50 µM: Klebsiella pneumoniae, 3 h.
Setting [3] is: cutoff for positive-scoring molecules 3-fold increase.
Where [4] appears, read: planktonic E. faecium, 384-well, cutoff for positive-scoring molecules 3-fold increase, read-out: AK-based Prestwick Library Screening Results: E. faecium (increase in extracellular AK activity).
[5] abbreviates: planktonic A. baumannii, 384-well, cutoff for positive-scoring molecules 3-fold increase, read-out: AK-based Prestwick Library Screening Results: A. baumannii (increase in extracellular AK activity).
The mark [6] stands for this setting: planktonic P. aeruginosa, 384-well, cutoff for positive-scoring molecules 3-fold increase, read-out: AK-based Prestwick Library Screening Results: P. aeruginosa (increase in extracellular AK activity).
Where [7] appears, read: planktonic S. aureus, 384-well, cutoff for positive-scoring molecules 3-fold increase, read-out: AK-based Prestwick Library Screening Results: S. aureus (increase in extracellular AK activity).
The mark [8] stands for this setting: planktonic E. cloacae, 384-well, cutoff for positive-scoring molecules 3-fold increase, read-out: AK-based Prestwick Library Screening Results: E. cloacae (increase in extracellular AK activity).
The mark [9] stands for this setting: planktonic E. coli, 50 μM final drug concentration, 384-well, cutoff for positive-scoring molecules 3-fold increase, read-out: AK-based Prestwick Library Screening Results: E. coli (increase in extracellular AK activity).
Setting [10] is: planktonic K. pneumoniae, 384-well, cutoff for positive-scoring molecules 3-fold increase, read-out: AK-based Prestwick Library Screening Results: K. pneumoniae (increase in extracellular AK activity).

The structures appear in SMILES notation. Counter-ions that a name gives are not always drawn. Like-named read-outs stand apart in the source and are kept apart here.

For the compound `CC(C)NC[C@@H](O)COc1ccc(CC(N)=O)cc1` [(R)-(+)-Atenolol], the “AK-based Prestwick Library Screening Results, E. faecium (fold increase in extracellular AK activity)” value with E. faecium (setting [3]) worked out at 1.0. The “AK-based Prestwick Library Screening Results, A. baumannii (fold increase in extracellular AK activity)” value in test [1] (setting [3]) was found to be 1.3. The “AK-based Prestwick Library Screening Results, P. aeruginosa (fold increase in extracellular AK activity)” value in the test on P. aeruginosa (setting [3]) was 1.2. Moreover, the “AK-based Prestwick Library Screening Results, S. aureus (fold increase in extracellular AK activity)” value in test [2] (setting [3]) is 1.2. Moreover, the “AK-based Prestwick Library Screening Results, E. cloacae (fold increase in extracellular AK activity)” value in the test on E. cloacae (setting [3]) is given as 1.3. Besides, the “AK-based Prestwick Library Screening Results, E. coli (fold increase in extracellular AK activity)” value in the test on E. coli (50 μM final drug concentration, cutoff for positive-scoring molecules 3-fold increase) came to 1.3. Besides, the “AK-based Prestwick Library Screening Results, K. pneumoniae (fold increase in extracellular AK activity)” value with K. pneumoniae (setting [3]) worked out at 1.2.
Consider `CCC1(c2ccccc2)C(=O)NCNC1=O` [Primidone], for which the fold induction at 50 µM was determined as 0.9 in the test on E. faecium (cutoff for positive-scoring molecules 3-fold increase, read-out: AK-based Prestwick Library Screening Results, E. faecium (fold increase in extracellular AK activity)); 1.2 in test [1] (cutoff for positive-scoring molecules 3-fold increase, read-out: AK-based Prestwick Library Screening Results, A. baumannii (fold increase in extracellular AK activity)); 1.2 with P. aeruginosa (cutoff for positive-scoring molecules 3-fold increase, read-out: AK-based Prestwick Library Screening Results, P. aeruginosa (fold increase in extracellular AK activity)); 1.3 in test [2] (cutoff for positive-scoring molecules 3-fold increase, read-out: AK-based Prestwick Library Screening Results, S. aureus (fold increase in extracellular AK activity)); 1.8 in the test with E. cloacae (cutoff for positive-scoring molecules 3-fold increase, read-out: AK-based Prestwick Library Screening Results, E. cloacae (fold increase in extracellular AK activity)); 1 with E. coli (read-out: AK-based Prestwick Library Screening Results, E. coli (fold increase in extracellular AK activity)). Besides, in the test on K. pneumoniae (cutoff for positive-scoring molecules 3-fold increase, read-out: AK-based Prestwick Library Screening Results, K. pneumoniae (fold increase in extracellular AK activity)), the fold induction at 50 µM was 0.9.
Turning to `COc1cc2c(cc1OC)-c1cc3ccc(OC)c(OC)c3c[n+]1CC2` [Palmatine chloride], the fold induction at 50 µM in the test on E. faecium (planktonic E. faecium, cutoff for positive-scoring molecules 3-fold increase, read-out: AK-based Prestwick Library Screening Results, E. faecium (increase in extracellular AK activity)) was found to be 1; in test [1] (planktonic A. baumannii, cutoff for positive-scoring molecules 3-fold increase, read-out: AK-based Prestwick Library Screening Results, A. baumannii (increase in extracellular AK activity)), 0.7; in the test with P. aeruginosa (planktonic P. aeruginosa, cutoff for positive-scoring molecules 3-fold increase, read-out: AK-based Prestwick Library Screening Results, P. aeruginosa (increase in extracellular AK activity)), 0.7; in test [2] (planktonic S. aureus, cutoff for positive-scoring molecules 3-fold increase, read-out: AK-based Prestwick Library Screening Results, S. aureus (increase in extracellular AK activity)), 0.8; with E. cloacae (planktonic E. cloacae, cutoff for positive-scoring molecules 3-fold increase, read-out: AK-based Prestwick Library Screening Results, E. cloacae (increase in extracellular AK activity)) it was 0.9; with E. coli (planktonic E. coli, 50 μM final drug concentration, cutoff for positive-scoring molecules 3-fold increase, read-out: AK-based Prestwick Library Screening Results, E. coli (increase in extracellular AK activity)), 0.7. In addition, in the test with K. pneumoniae (planktonic K. pneumoniae, cutoff for positive-scoring molecules 3-fold increase, read-out: AK-based Prestwick Library Screening Results, K. pneumoniae (increase in extracellular AK activity)), the fold induction at 50 µM turned out to be 0.5.
As to `C#C[C@]1(O)CC[C@H]2[C@@H]3CCC4=CCCC[C@@H]4[C@H]3CC[C@@]21C` [Lynestrenol], the fold induction at 50 µM came out at 0.9 in the test with E. faecium (384-well format, cutoff for positive-scoring molecules 3-fold increase, read-out: AK-based Prestwick Library Screening Results, E. faecium (increase in extracellular AK activity)); 1.4 in test [1] (384-well format, cutoff for positive-scoring molecules 3-fold increase, read-out: AK-based Prestwick Library Screening Results, A. baumannii (increase in extracellular AK activity)); 0.6 with P. aeruginosa (384-well format, cutoff for positive-scoring molecules 3-fold increase, read-out: AK-based Prestwick Library Screening Results, P. aeruginosa (increase in extracellular AK activity)); 0.5 in test [2] (384-well format, cutoff for positive-scoring molecules 3-fold increase, read-out: AK-based Prestwick Library Screening Results, S. aureus (increase in extracellular AK activity)); 0.7 with E. cloacae (384-well format, cutoff for positive-scoring molecules 3-fold increase, read-out: AK-based Prestwick Library Screening Results, E. cloacae (increase in extracellular AK activity)); 0.7 in the test on E. coli (50 μM final drug concentration, 384-well format, cutoff for positive-scoring molecules 3-fold increase, read-out: AK-based Prestwick Library Screening Results, E. coli (increase in extracellular AK activity)). Also, the fold induction at 50 µM in the test with K. pneumoniae (384-well format, cutoff for positive-scoring molecules 3-fold increase, read-out: AK-based Prestwick Library Screening Results, K. pneumoniae (increase in extracellular AK activity)) worked out at 0.6.
On to `Cc1ccsc1/C=C/C1=NCCCN1C` [Morantel tartrate], for which the fold induction at 50 µM in the test with E. faecium (planktonic E. faecium, 384-well, […], read-out: AK-based Prestwick Library Screening Results: E. faecium (increase in extracellular AK activity)) worked out at 0.8; in test [1] (planktonic A. baumannii, 384-well, […], read-out: AK-based Prestwick Library Screening Results: A. baumannii (increase in extracellular AK activity)) it was 1.1; with P. aeruginosa (planktonic P. aeruginosa, 384-well, […], read-out: AK-based Prestwick Library Screening Results: P. aeruginosa (increase in extracellular AK activity)), 1.2; in test [2] (planktonic S. aureus, 384-well, […], read-out: AK-based Prestwick Library Screening Results: S. aureus (increase in extracellular AK activity)), 1.2; in the test with E. cloacae (planktonic E. cloacae, 384-well, […], read-out: AK-based Prestwick Library Screening Results: E. cloacae (increase in extracellular AK activity)), 1.3; in the test with E. coli (planktonic E. coli, 50 μM final drug concentration, 384-well, […], read-out: AK-based Prestwick Library Screening Results: E. coli (increase in extracellular AK activity)) it was 1.4. In addition, in the test with K. pneumoniae (planktonic K. pneumoniae, 384-well, […], read-out: AK-based Prestwick Library Screening Results: K. pneumoniae (increase in extracellular AK activity)), the fold induction at 50 µM turned out to be 0.9.
In the case of `COc1cc2nc(N(C)CCCNC(=O)C3CCCO3)nc(N)c2cc1OC` (centres unmarked) [Alfuzosin hydrochloride], the fold induction at 50 µM with E. faecium (setting [4]) was determined as 0.9; in test [1] (setting [5]) it was 0.4; in the test on P. aeruginosa (setting [6]), 0.4; in test [2] (setting [7]), 0.3; with E. cloacae (setting [8]), 0.4; in the test on E. coli (setting [9]) it was 0.5. For the same compound, in the test on K. pneumoniae (setting [10]), the fold induction at 50 µM came to 0.4.
In the case of `CCN(CC)CC(=O)Nc1c(C)cccc1C` [Lidocaine hydrochloride], the fold induction at 50 µM with E. faecium (setting [4]) is 1.2; in test [1] (setting [5]), 1.1; in the test on P. aeruginosa (setting [6]), 1.1; in test [2] (setting [7]), 1.1; in the test with E. cloacae (setting [8]), 1.3; in the test with E. coli (setting [9]), 1.3. For the same compound, the fold induction at 50 µM in the test with K. pneumoniae (setting [10]) came out at 1.1.
Regarding `C=CC1=C(C(=O)O)N2C(=O)[C@@H](NC(=O)/C(=N\OCC(=O)O)c3csc(N)n3)[C@H]2SC1` [Cefixime], the fold induction at 50 µM amounted to 1.1 in the test with E. faecium (planktonic, cutoff for positive 3-fold increase, read-out: AK-based Prestwick Library Screening Results, E. faecium (fold increase in extracellular AK activity)); 1.8 in test [1] (planktonic, cutoff for positive 3-fold increase, read-out: AK-based Prestwick Library Screening Results, A. baumannii (fold increase in extracellular AK activity)); 11.7 in the test with P. aeruginosa (planktonic, cutoff for positive 3-fold increase, read-out: AK-based Prestwick Library Screening Results, P. aeruginosa (fold increase in extracellular AK activity)); 1.2 in test [2] (planktonic, cutoff for positive 3-fold increase, read-out: AK-based Prestwick Library Screening Results, S. aureus (fold increase in extracellular AK activity)); 21.9 in the test with E. cloacae (planktonic, cutoff for positive 3-fold increase, read-out: AK-based Prestwick Library Screening Results, E. cloacae (fold increase in extracellular AK activity)); 18.6 with E. coli (50 μM final drug concentration, planktonic, cutoff for positive 3-fold increase, read-out: AK-based Prestwick Library Screening Results, E. coli (fold increase in extracellular AK activity)). Moreover, the fold induction at 50 µM in the test with K. pneumoniae (planktonic, cutoff for positive 3-fold increase, read-out: AK-based Prestwick Library Screening Results, K. pneumoniae (fold increase in extracellular AK activity)) came to 4.6.
